Measurements: PMC4752462 (PLoS ONE, 2016)
Several values for one entry are separate records, joined by “and”; a condition that tells them apart may be missing. Equal entries are not always repeated.

How the values were obtained:
[1] = plasma pharmacokinetics; cited from earlier work
human liver microsomes [2] = assay: in vitro; assay type: in vitro ADME; conditions: for EVG remaining: human, microsomes, 4 μM, pH 7.4
Description: (§1) The reaction was carried out using human liver microsomes in 0.1 M potassium phosphate buffer at pH 7.4 as described previously. […] After pre-incubation at 37°C for 10 minutes, 3 mM final concentration of NADPH was added to initiate the metabolic reaction. After 7 minutes incubation at 37°C the reactions were terminated by adding 1:3 volumes of cold acetonitrile. For the time kinetic study, the reaction was terminated at various time points (0.0, 2.5, 5, 10, 15, 20, 30, and 60 minutes). […] The Prior to LCMS/MS analysis the analyte was extracted from the microsomes by a protein precipitation method as described previously. The concentrations of all the drugs were quantified using Ab Sciex Analyst® software. Microsomal kinetic data were analyzed using Michaelis-Menten and exponential decay equations. CYP3A4 inhibition data were evaluated by fitting the values to dose-response inhibition and calculated IC50 values were reported. All graphs were plotted and two-tailed t-tests were performed wherever appropriate using GraphPad Prism 5.01 (GraphPad, San Diego, CA). Significant differences between more than two groups analyzed with one-way ANOVA followed by Dunnett's multiple comparison tests using IBM […] version 20. […] To study the influence of alcohol consumption on EVG metabolism, 20 mM ethanol (physiological concentration in moderate drinker) was used to treat human liver microsomes. […] EVG degradation/metabolism at 4 μM followed a pseudo-first-order kinetic. Therefore, we fit the data to an exponential one phase decay equation to determine the apparent half-life (t1/2) and rate constant K.

in vitro = in vitro ADME, human; conditions: human, microsomes
Description: as §1

[3] = Sample stability of EVG in the microsomal matrix (bench-top, freeze-thaw, long-term storage); assay type: physicochemical
Description: Accuracy and precision of the method were determined by analyzing QC samples that cover the calibration curve range of the analyte. The low QC concentration was selected to be three times the LLOQ as per the FDA guidelines. Inter-day precision and accuracy were calculated by analyzing extracted calibration standards and three QCs at different concentrations as described in our previous publications. […] Carry-over (memory) effect was determined by assessing the extracted blank immediately after the upper limit of quantification (ULOQ, 1000 ng/ml). Matrix effect (ME), recovery efficiency (RE), and process efficiency (PE) were explored by following a previously proposed methodology. The three sets of samples used for the experiments were as follows: A, pure standard solutions of EVG; B, blank microsomal extraction spiked with pure standard solutions of EVG; C, microsomal samples spiked with pure standard solutions of EVG and extracted at the low, medium, and high QC concentrations. After quantitation of the analyte the parameters were calculated using the following formulae. ME (%) = B/A x 100, RE (%) = C/B x 100, PE (%) = C/A x 100. Furthermore, analyte peak areas were corrected with their respective IS peak areas and reported. Finally, sample stability studies for the EVG in the microsomal matrix was tested using low, medium, and high QCs at the bench-top (25°C) and storage conditions (-80°C). Analyte concentrations in these samples were measured after fresh preparation and at 12, 24, and 48 hours. […] For the long-term storage, samples were analyzed after storing them at the -80°C for three months. All determined concentrations were compared with freshly prepared QCs and reported the variation as a percentage of change from the freshly made QCs. The incurred sample reanalysis was also done by randomly selecting 10% of the total samples analyzed. The obtained data was compared with the first time results of the samples to determine whether the variability is beyond ± 20%.

human liver microsomes [4] = assay: Substrate (saturation) kinetics of EVG metabolism in human liver microsomes; assay type: in vitro ADME
Description: (§2) The reaction was carried out using human liver microsomes in 0.1 M potassium phosphate buffer at pH 7.4 as described previously. […] After pre-incubation at 37°C for 10 minutes, 3 mM final concentration of NADPH was added to initiate the metabolic reaction. After 7 minutes incubation at 37°C the reactions were terminated by adding 1:3 volumes of cold acetonitrile. For the time kinetic study, the reaction was terminated at various time points (0.0, 2.5, 5, 10, 15, 20, 30, and 60 minutes). […] The Prior to LCMS/MS analysis the analyte was extracted from the microsomes by a protein precipitation method as described previously. The concentrations of all the drugs were quantified using Ab Sciex Analyst® software. Microsomal kinetic data were analyzed using Michaelis-Menten and exponential decay equations. CYP3A4 inhibition data were evaluated by fitting the values to dose-response inhibition and calculated IC50 values were reported. All graphs were plotted and two-tailed t-tests were performed wherever appropriate using GraphPad Prism 5.01 (GraphPad, San Diego, CA). Significant differences between more than two groups analyzed with one-way ANOVA followed by Dunnett's multiple comparison tests using IBM […] version 20.

[5] = as above; assay type: in vitro ADME; conditions: human
Description: as §2

CYP3A4 = conditions: based on the EVG metabolic activity; cited from earlier work
[6] = three values per group used for statistics

Q: Which plasma half-life [1] does the source give for COc1cc2c(cc1Cc1cccc(Cl)c1F)c(=O)c(C(=O)O)cn2[C@H](CO)C(C)C [EVG, Elvitegravir] here?
A: 120 to 180 min

Q: And the “Rate Constant 'K'” value (human liver microsomes [2]; With Ethanol, three values per group)?
A: 0.05

Q: What about the EVG remaining (human liver microsomes [2]; 0 h) of the same compound?
A: 100 % of control

Q: And the EVG remaining (human liver microsomes [2]; 2.5 min)?
A: 96.6 % of control

Q: What about the EVG remaining (human liver microsomes [2]; 5 min) of the same compound?
A: 93.5 % of control

Q: And the EVG remaining (human liver microsomes [2]; 10 min)?
A: 77.8 % of control

Q: What about the EVG remaining (human liver microsomes [2]; 0.25 h) of the same compound?
A: 63.6 % of control

Q: What about the EVG remaining (human liver microsomes [2]; 20 min) of the same compound?
A: 45.2 % of control

Q: What about the EVG remaining (human liver microsomes [2]; 0.5 h) of the same compound?
A: 30.4 % of control

Q: What about the EVG remaining (human liver microsomes [2]; 1 h) of the same compound?
A: 14.2 % of control

Q: And the half-life at 4 μM (in vitro; pH 7.4, Half-life)?
A: 12.1 min

Q: And the half-life at 4 μM (in vitro; pH 7.4, Half-life (minutes))?
A: 17 ± 1 min

Q: What about the “long term storage stability” value ([3]; -80°C, 3-4 months, data not shown) of the same compound?
A: did not exhibit significant loss in the concentration

Q: What about the “change from freshly prepared quality controls” value (from here on “change”) ([3]; Freeze thaw (-80°C), cycle 1, High QC 3.50 μM) of the same compound?
A: -3%

Q: And the “change” value ([3]; Freeze thaw (-80°C), cycle 1, Low QC 0.040 μM)?
A: -12%

Q: What about the “change” value ([3]; Freeze thaw (-80°C), cycle 1, Medium QC 0.75 μM) of the same compound?
A: 5%

Q: What about the “change” value ([3]; Freeze thaw (-80°C), cycle 2, High QC 3.50 μM) of the same compound?
A: 3%

Q: And the “change” value ([3]; Freeze thaw (-80°C), cycle 2, Low QC 0.040 μM)?
A: -7%

Q: What about the “change” value ([3]; Freeze thaw (-80°C), cycle 2, Medium QC 0.75 μM) of the same compound?
A: 3%

Q: And the “change” value ([3]; Freeze thaw (-80°C), cycle 3, High QC 3.50 μM)?
A: -15%

Q: And the “change” value ([3]; Freeze thaw (-80°C), cycle 3, Low QC 0.040 μM)?
A: -3%

Q: What about the “change” value ([3]; Freeze thaw (-80°C), cycle 3, Medium QC 0.75 μM) of the same compound?
A: 5%

Q: What about the “change” value ([3]; Room Temp (25°C), 0 hours, High QC 3.50 μM) of the same compound?
A: 0%

Q: What about the “change” value ([3]; Room Temp (25°C), 0 hours, Low QC 0.040 μM) of the same compound?
A: 0%

Q: And the “change” value ([3]; Room Temp (25°C), 0 hours, Medium QC 0.75 μM)?
A: 0%

Q: And the “change” value ([3]; Room Temp (25°C), 12 hours, High QC 3.50 μM)?
A: 0.1%

Q: And the “change” value ([3]; Room Temp (25°C), 12 hours, Low QC 0.040 μM)?
A: -14%

Q: And the “change” value ([3]; Room Temp (25°C), 12 hours, Medium QC 0.75 μM)?
A: 9%

Q: What about the “change” value ([3]; Room Temp (25°C), 24 hours, High QC 3.50 μM) of the same compound?
A: 1.8%

Q: What about the “change” value ([3]; Room Temp (25°C), 24 hours, Low QC 0.040 μM) of the same compound?
A: -10%

Q: What about the “change” value ([3]; Room Temp (25°C), 24 hours, Medium QC 0.75 μM) of the same compound?
A: 4%

Q: And the “change” value ([3]; Room Temp (25°C), 48 hours, High QC 3.50 μM)?
A: -0.4%

Q: What about the “change” value ([3]; Room Temp (25°C), 48 hours, Low QC 0.040 μM) of the same compound?
A: -5%

Q: What about the “change” value ([3]; Room Temp (25°C), 48 hours, Medium QC 0.75 μM) of the same compound?
A: 7%

Q: And the “stability at room temperature” value ([3]; microsomal matrix, over 48 hours)?
A: considered stable

Q: What about the “percentage of variation in the freeze-thaw stability studies” value ([3]; up to 3-4 freeze-thaw cycles) of the same compound?
A: less than 15%

Q: And the “enzyme activity (Fig 4 data)” value (human liver microsomes [4]; EVG 4)?
A: 3.7 μmol/min/mg protein

Q: And the “enzyme activity (Fig 4 data)” value (human liver microsomes [4]; EVG 8)?
A: 7.7 μmol/min/mg protein

Q: What about the “enzyme activity (Fig 4 data)” value (human liver microsomes [4]; EVG 20) of the same compound?
A: 19.5 μmol/min/mg protein

Q: What about the “enzyme activity (Fig 4 data)” value (human liver microsomes [4]; EVG 40) of the same compound?
A: 38.6 μmol/min/mg protein

Q: What about the “enzyme activity (Fig 4 data)” value (human liver microsomes [4]; EVG 60) of the same compound?
A: 55.9 μmol/min/mg protein

Q: What about the “enzyme activity (Fig 4 data)” value (human liver microsomes [4]; EVG 80) of the same compound?
A: 68.9 μmol/min/mg protein

Q: And the “enzyme activity (Fig 4 data)” value (human liver microsomes [4]; EVG 100)?
A: 74.7 μmol/min/mg protein

Q: What about the “enzyme activity (Fig 4 data)” value (human liver microsomes [4]; EVG 120) of the same compound?
A: 71.9 μmol/min/mg protein

Q: What about the “enzyme activity (Fig 4 data)” value (human liver microsomes [4]; EVG 160) of the same compound?
A: 70.9 μmol/min/mg protein

Q: What about the “enzyme activity (Fig 4 data)” value (human liver microsomes [4]; EVG 200) of the same compound?
A: 84.3 μmol/min/mg protein

Q: What about the Vmax (human liver microsomes [4]; EVG alone) of the same compound?
A: 162 ± 16 μmol/min/mg protein

Q: What about the Vmax (human liver microsomes [4]; in the presence of ethanol) of the same compound?
A: 221 ± 18 μmol/min/mg protein

Q: What about the Km (human liver microsomes [4]; [6]) of the same compound?
A: 65.2 µM and 68.7 µM

Q: And the Vmax (human liver microsomes [4]; [6])?
A: 162.1 and 157.8 and 158.3

Q: What about the Vmax (human liver microsomes [4]; when COBI is present) of the same compound?
A: 308 ± 45 μmol/min/mg protein

Q: And the Km at 7 min ([5]; pH 7.4, EVG 4-200 μM, COBI at same ratio, EtOH 20 mM)?
A: 68 ± 17 µM

Q: And the Km at 7 min ([5]; pH 7.4, in the presence of ethanol)?
A: 115 ± 18 µM

Q: And the Km at 7 min ([5]; pH 7.4, three values per group used for statistics)?
A: 68.3 µM

Q: What about the Km at 7 min ([5]; pH 7.4, when COBI is present) of the same compound?
A: 189 ± 46 µM

Q: And the Km (CYP3A4)?
A: 21.5 µM
